Among the data in patent US5326902A, “Oxyalkyne compounds, pharmaceutical compositions containing them and processes for preparing such compounds and compositions” (Gruenenthal GmbH, priority 1992, dated 1994) are IC50 values, retold here.

Assay [1] addresses T1, 5-lipoxygenase (Rattus norvegicus, UniProt P12527).
T1 construct: endogenous in cells; host or cells: RBL-1 cells (rat basophilic leukemia)
T1 sequence (P12527 1-673): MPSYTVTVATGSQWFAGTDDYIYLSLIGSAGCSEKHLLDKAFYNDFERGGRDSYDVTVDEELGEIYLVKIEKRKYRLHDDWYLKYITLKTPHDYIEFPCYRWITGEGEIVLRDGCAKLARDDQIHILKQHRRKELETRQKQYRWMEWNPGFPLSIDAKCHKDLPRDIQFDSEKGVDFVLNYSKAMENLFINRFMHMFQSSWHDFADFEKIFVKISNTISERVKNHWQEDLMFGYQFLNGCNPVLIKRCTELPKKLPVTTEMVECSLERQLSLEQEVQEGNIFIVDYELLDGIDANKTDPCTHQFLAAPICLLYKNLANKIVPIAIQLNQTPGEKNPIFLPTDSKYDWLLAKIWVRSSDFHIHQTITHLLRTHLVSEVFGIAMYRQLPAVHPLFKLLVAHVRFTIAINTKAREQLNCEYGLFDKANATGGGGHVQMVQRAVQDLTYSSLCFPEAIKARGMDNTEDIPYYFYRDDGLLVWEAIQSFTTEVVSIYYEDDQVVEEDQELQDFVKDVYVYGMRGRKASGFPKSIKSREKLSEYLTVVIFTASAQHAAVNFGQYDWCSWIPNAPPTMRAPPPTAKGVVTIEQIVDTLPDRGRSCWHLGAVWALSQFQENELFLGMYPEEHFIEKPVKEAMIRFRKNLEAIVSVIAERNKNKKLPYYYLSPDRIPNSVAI
Put plainly: Inhibition of 5-lipoxygenase in RBL-1-cells. The format is cell-based. The note with it: 20 μM [14C]-arachidonic acid, 20 μM calcium ionophore A 23 187, 10 minutes. As to the method:
To determine the inhibition of 5-lipoxygenase, rat basophilic leukemia cells (RBL-1-cells) were cultured in vitro, harvested by centrifugation, washed with 50 mM potassium phosphate buffer of pH 7.4, and then suspended in this buffer at 1×10^7 cells/ml. Indomethacin (10 μM) and calcium chloride (2 mM) were added to 1 ml portions of this suspension, and then the mixture was incubated either in the presence of a compound according to the invention in a concentration range of from 0,1 μM to 100 μM or in the presence of a solvent (ethanol and/or dimethyl sulfoxide) for 3 minutes and thereafter with 20 μM of [^14 C]-arachidonic acid and 20 μM of calcium ionophore A 23 187 for 10 minutes. The reaction was stopped by adding 20 μl of glacial acetic acid, and then the mixture was extracted with ethyl acetate to isolate the metabolites of arachidonic acid formed by the enzymatic action of 5-lipoxygenase. These were separated by thin layer chromatography using a solvent mixture known to be suitable for lipoxygenase products [c.f. Jakschik et al., Biochem. Biophys. Res. Commun. 102, 624 (1981)].
The distribution of radioactivity among the different metabolites of arachidonic acid was measured using a TLC Linear Analyzer. By correlating the percentage amounts of the products formed under the action of 5-lipoxygenase (5HETE, isomers of LTB4) in the absence as well as in the presence of different concentrations of compounds according to the invention, the IC50 -values, i.e. the concentrations which cause a 50% inhibition of 5-lipoxygenase, were determined graphically from semilogarithmic plots.

Assay [2] has as its target T1, 5-lipoxygenase. Put plainly: Inhibition of Cell-free 5-lipoxygenase from RBL-1-cells (polarographic, 10,000 × g supernatant). The format is biochemical. The note with it: 10,000 × g supernatant of homogenized RBL-1-cells; arachidonic acid 75 μM; 35° C.; calculated IC50. The method, then: Cell-free 5-lipoxygenase was polarographically measured from 10,000 × g supernatant of homogenized rat basophilic leucemia cells (M. Haurand & L. Flohe in Biol. Chem. Hoppe-Seyler 369, 133 to 142 (1988)). After preincubation of the 10,000 × g supernatant with arachidonic acid (75 μM), ATP (adenosine triphosphate; 4 mM), reduced glutathione (4 mM), and either a compound according to the invention (0.1 to 100 μM) or a solvent (ethanol and/or dimethyl sulfoxide) at 35° C. for 5 minutes, the lipoxygenase reaction was initiated by addition of calcium chloride (3 mM) and simultaneously recorded.
The activity of 5-lipoxygenase was determined from the difference in the pO2 -decrease before and after addition of calcium chloride. The evaluation included the initial rate of the reaction after the lag-phase as well as the duration of the lag-phase. In the concentration range of from 3 to 50 μM, the test substances induced lag-phases between 20 and 60 seconds.

One may read the IC50 as the point on the concentration scale where inhibition reaches its midpoint. Regarding `CC(=O)N(O)Cc1ccc(C(O)C#Cc2ccccc2)cc1` (single isomer, unassigned; (+)) [Example 2, (+)-N-Hydroxy-N-[4-[1-hydroxy-3-phenyl-prop-2-yn-1-yl]benzyl]acetamide], the IC50 in assay [1] is 4 µM.

As to `CC(=O)N(O)C(C)c1ccc(C(O)C#Cc2ccccc2)cc1` (stereo not drawn) [Example 6, N-Hydroxy-N-[1-[4-(1-hydroxy-3-phenyl-prop-2-yn-1-yl)phenyl]ethyl]acetamide], the IC50 in assay [2] is 8 µM.

On to `CC(=O)N(O)Cc1cccc(C(O)C#Cc2ccsc2)c1` (stereo not drawn) [Example 20, N-Hydroxy-N-[3-[1-hydroxy-3-(3-thienyl)prop-2-yn-1-yl]benzyl]acetamide], for which, in assay [2], the 50% inhibitory concentration (IC50) is 7 µM.

As to `NC(=O)N(O)Cc1cccc(C(O)C#Cc2ccccc2)c1` (stereo not drawn) [Example 29, N-Hydroxy-N-[3-[1-hydroxy-3-phenyl-prop-2-yn-1-yl]benzyl]urea], the IC50 in assay [1] turned out to be 4 µM.

As for `CCOC(C#Cc1cccs1)c1ccc(CN(O)C(N)=O)cc1` (stereo not drawn) [Example 35, N-Hydroxy-N-[4-[1-ethoxy-3-(2-thienyl)prop-2yn-1-yl]benzyl]urea], the results for the IC50 in assay [1] and in assay [2] were 3 µM and 5 µM, respectively.

With `CC(=O)OC(C#Cc1ccccc1)c1ccc(CN(O)C(C)=O)cc1` (stereo not drawn) [Example 4, N-Hydroxy-N-[4-[1-acetoxy-3-phenyl-prop-2-yn-1-yl]benzyl]acetamide], the IC50 in assay [1] was 4 µM; in assay [2], 9 µM.

Regarding `NC(=O)N(O)Cc1ccc(C(O)C#Cc2cccs2)cc1` (stereo not drawn) [Example 27, N-Hydroxy-N-[4-[1-hydroxy-3-(2-thienyl)prop-2-yn-1-yl]benzyl]urea], in assay [1], the IC50 stood at 3 µM.

In the case of `CCOC(C#Cc1ccc(OC)c(OC)c1)c1ccc(CN(O)C(C)=O)cc1` (stereo not drawn) [Example 33, N-Hydroxy-N-[4-[1-ethoxy-3-(3,4-dimethoxyphenyl)prop-2-yn-1-yl]benzyl]acetamide], the 50% inhibitory concentration (IC50) in assay [1] is 5 µM; in assay [2] it was 6 µM.

For `CC(=O)N(O)Cc1ccc(C(O)C#Cc2ccccc2Cl)cc1` (stereo not drawn) [Example 9, N-Hydroxy-N-[4-[1-hydroxy-3-(2-chlorophenyl)prop-2-yn-1-yl]benzyl]acetamide], in assay [1], the IC50 was found to be 4 µM.

With `COc1cccc(C#CC(O)c2ccc(CN(O)C(C)=O)cc2)c1` (stereo not drawn) [Example 13, N-Hydroxy-N-[4-[1-hydroxy-3-(3-methoxyphenyl)prop-2-yn-1-yl]benzyl]acetamide], the IC50 in assay [1] and in assay [2] was 3 µM in each case.

Turning to `NC(=O)N(O)Cc1ccc(C(O)C#Cc2ccc(Cl)cc2)cc1` (stereo not drawn) [Example 24, N-Hydroxy-N-[4-[1-hydroxy-3-(4-chlorophenyl)prop-2-yn-1-yl]benzyl]urea], the IC50 in assay [1] came to 3 µM.

Consider `CC(=O)N(O)Cc1cccc(C(O)C#Cc2ccccc2)c1` (stereo not drawn) [Example 19, N-Hydroxy-N-[3-[1-hydroxy-3-phenyl-prop-2-yn-1-yl]benzyl]acetamide], for which the 50% inhibitory concentration (IC50) in assay [1] came out at 3 µM.

As for `CCOC(C#Cc1ccccc1)c1ccc(CN(O)C(C)=O)cc1` (stereo not drawn) [Example 5], the half-maximal inhibitory concentration (IC50) is 4 µM in assay [1] and 5 µM in assay [2].
